Where two headings read alike, the source gives them in different places.
Tests used:
reniform nematode = system: reniform nematode
Procedure: (§1) The liquid potassium azide compound was added to the soil in an aqueous solution of amounts of: 1, 2, 3, 4 and 5 mgs KN3 per kg of soil. The formulation used for this experiment 1% KN3 and 0.5% sodium lauryl sulfate. Soil samples were collected one week after the application of the KN3 solution for nematological analysis using such techniques as the salad bowl incubation technique.

microbivorous nematodes = conditions: 1-5 mgs KN3 per kg of soil, one week after application
Procedure: as §1

root-knot nematode [1] = conditions: applications of ≧2 mgs KN3/Kg soil, 10 days after application
Procedure: (§2) In this example, the soil used was from a cotton field infested with the root-knot [Meloidogyne incognita], and lance [Hoplolaimus galeatus], nematodes—each a plant parasitic specie. The soil was mixed with washed siliceous river sand (in equal parts by volume), apportioned into one kg amounts in 4 L plastic bags and placed in pots. The test solution was prepared by dissolving 0.500 gms KN3 in an aqueous solution containing 50 mls of a 10% casein [w/v] solution in 0.1N NaOH and diluting with water to a final volume of 500 mls; the solution thus contained 1 mg KN3/ml. The solution was added to soil at rates of 1, 2, 4, 6, 8, and 10 mls/Kg soil. There were for each treatment and controls [no solution], a total of 7 pots each containing 1 Kg of soil. After application of the solution, for each rate, each pot was covered with a plastic bag. The pots were placed on a greenhouse bench and were arranged in a randomized block design. After 10 days the covers were removed, soil samples were collected from each pot for nematological analyses and “Young” soybean were planted [5 seed/pot]. The resulting plants were allowed to grow for 7 weeks when they were carefully separated from the soil and growth parameters measured. The roots and final soil samples were incubated to determine nematode populations. Nematode numbers in soil and roots were determined using the salad bowl incubation technique.

"Young" soybean = conditions: range 1-8 mgs/Kg soil; sharpest increases at 1 and 2 mgs rates; soybean grown 7 weeks
Procedure: as §2

lance nematode = conditions: applications of ≧2 mgs KN3/Kg soil, 10 days after application
Procedure: as §2

[2] = system: beneficial microbivorous nematodes
Procedure: as §2

weeds [3] = system: weeds
weeds [4] = test: Microplot experiment, amine-protein stabilized NaN3, weed control (Example 3); assay type: in vivo; conditions: all but the three lowest rates of NaN3
From the text: (§3) The formulation contained 5% [w/v] […] Soil in the microplots was a sandy loam [pH=6.2; organic matter content <1.0%; C.E.C <10 meq/100 g soil] infested with the nematodes: Meloidogyne incognita, Paratrichodorus minor, Tylenchorhynchus claytoni, and Helicotylenchus dihystera 1]. Weeds in the plots were principally crabgrass [Digitaria sanguinalis], yellow nutsedge [Cyperus esculentum], pigweed [Amaranthus spp.], and morning glories [Ipomea spp., Jacquemontia tamnifolia].
(§4) The plots were covered with standard polyethylene [1 mil] tarp immediately after application of the chemical. After 10 days the cover was removed, the number of weeds was determined, soil samples for nematological analyses were taken and each plot was planted with two 4-week old ‘Huskie’ tomato seedlings. The plants were grown for 3 months and data were collected on yield, number of fruits, weed infestation and nematode populations.

'Huskie' tomato = conditions: tomato grown 3 months
From the text: as §3, §4

"Rowden" cotton = system: "Rowden" cotton
Procedure: (§5) The aqueous formulation was a solution containing 1% [w/v] […] After thorough mixing, the contents of a bag were poured into 1 L capacity, 10-cm-diam cylindrical plastic pots which were then covered with standard polyethylene [[…]]. Each rate and the no treatment control was represented by 7 replications [pots] arranged in a randomized complete block design. Ten days after application of the chemical solution, the pots were uncovered and 5 seed of “Rowden” cotton [Gossypium hirsutum] were planted in each pot. The resulting plants were grown for 8 weeks. When the plants were removed after 8 weeks, soil samples were collected for nematological analyses. The shoots and roots of the plants were weighed and the root systems were examined and indexed for disease severity symptoms. Following examination, the roots were incubated to determine nematode populations.

[5] = system: plant parasitic nematodes (cotton wilt complex Fusarium oxysporum f sp. vasinfectum×Meloidogyne incognita); conditions: all NaN3 dosages, 10-100 mgs a.i./kg soil; 8 weeks after planting
Procedure: as §5

root-knot nematode [6] = conditions: dosages of 100 and 200 kg/ha, 3 weeks after application
From the text: (§6) The soil was a calcareous silty clay loam with pH 7.8 and <1% organic matter. […] Each dosage rate was delivered into pre-acidified soil as well as in non-acidified and administered using 3 different water levels: 3, 10, and 15 L/m^2. Acidification was with H2SO4 to lower soil pH to less than 7.00. […] After 3 weeks the soil was uncovered and a soil sample was removed for nematological analyses and the weeds were counted.

[7] = system: coastal bermuda grass, yellow nutsedge and other weeds
From the text: as §6

pepper or tomato plants = conditions: seedlings transplanted 6 weeks after NaN3 application, 100 and 200 kg/ha
weeds [8] = system: weeds; remark: listed apart in the source
From the text: (§7) The square microplots of 1 ft^2 [929 cm^2] and 2 feet [61 cms] deep having an open-bottom were used. Each microplot was delimited by a terra-cotta chimney flue. The soil filling the plot was a sandy loam [pH=6.2; organic matter content <1.0%; C.E.C <10 meq/100 g soil] and was infested with the nematodes: Meloidogyne incognita [root-knot], Paratrichodorus minor [stubby root], Tylenchorhynchus claytoni [stunt], and Helicotylenchus dihystera [spiral]. Weeds introduced into the plots were principally crabgrass [Digitaria sanguinalis], yellow nutsedge [Cyperus esculentum], pigweed [Amaranthus spp.], and morning glories [Ipomea spp., Jacquemontia tamnifolia].
(§8) The plots were covered with standard polyethylene [1 mil] and after 10 days the cover was removed, the number of weeds was determined, soil samples for nematological analyses were taken and each plot was planted with two 3-week old ‘Black Beauty’ eggplant [Solanum melongena] seedlings. The plants were grown for 2 months and data were collected on yield, weed infestation and nematode populations.

'Black Beauty' eggplant = conditions: eggplant grown 2 months; rates 0-5.0 g/plot
From the text: as §7, §8

[9] = system: plant parasitic nematodes
From the text: as §7, §8

[10] = system: plant parasitic nematodes; test: Microplot experiment, amine-protein stabilized NaN3, nematode control (Example 3); assay type: in vivo
From the text: as §3, §4

[11] = plots treated with ≦2.0 g NaN3 rates
[12] = three highest rates (3.0, 4.0, 5.0 g/plot)

[K+].[N-]=[N+]=[N-] [KN3, potassium azide]
numbers of reniform nematode in response to increasing KN3 (reniform nematode; 1-5 mgs KN3 per kg of soil, one week after application): declined exponentially
control of the reniform nematodes (reniform nematode; rates of 4-5 mg of KN3 per kg of soil): ~100%
numbers of microbivorous nematodes in response to increasing KN3 (microbivorous nematodes): declined in an almost linear fashion
root-knot nematode population in the preplant sample (root-knot nematode [1]): eliminated
plant response as measured by the weights of shoots and roots ("Young" soybean): positive and pronounced
lance nematode population in the preplant sample (lance nematode): eliminated
numbers of beneficial microbivorous nematodes ([2]; 1 and 2 mg application rates): pronounced stimulation
populations of beneficial microbivorous nematodes ([2]; application rates <6 KN3/Kg, final soil): not adversely affected
application rate necessary to significantly reduce or eliminate microbivorous nematodes ([2]; in vivo): > 4 mgs/Kg soils
number of weeds (weeds [3]; KN3 rates of 20-200 mg/kg of soil): declining in proportion to rates used
control rates for weeds (weeds [3]; rates of greater than 140 mg/kg of soil): over 80%

[N-]=[N+]=[N-].[Na+] [NaN3, sodium azide]
weeds at planting time (weeds [4]): no weeds
yield and number of fruits ('Huskie' tomato): increased directly in response to NaN3 rates from 0-4 g/plot
weights of shoots and roots ("Rowden" cotton; NaN3 rates 10-60 mgs/kg soil): Sharp increases
weights of shoots and roots ("Rowden" cotton; NaN3 rates ≧70 mgs/kg soil): no additional weight increments
cotton root health [root condition index] ("Rowden" cotton; all NaN3 dosages, 10-100 mgs/kg soil): markedly improved
plant parasitic nematodes in soil and roots [5]: eliminated from the soil and roots
nematodes controlled (root-knot nematode [6]): greater than 90%
effectiveness against nutsedge ([7]; 100 and 200 kg/ha): particularly effective
weeds controlled ([7]; dosages of 100 and 200 kg/ha, 3 weeks after application): all weeds
phytotoxicity to pepper or tomato plants (pepper or tomato plants): no evidence of phytotoxicity
weeds at planting (weeds [8]; 10 days after drench, all but the two lowest rates of NaN3): no weeds
weeds at the end of the experiment (weeds [8]; [11]): significant populations
weed infestation at the end of the experiment (weeds [8]; [12]): no significant weed infestation
yield and number of fruits ('Black Beauty' eggplant): increased directly in response to NaN3 rates from 0-1.5 g/plot and leveled out
nematodes in planting time soil samples ([9]; 10 days after drench, plots treated with 0.5-5.0 g sodium azide/plot, control plots infested with all species): no nematodes
plant parasitic nematodes at the end of the experiment [9, 11]: significant populations
plant parasitic nematodes at the end of the experiment [9, 12]: no plant parasitic nematodes
nematodes in soil samples at planting ([10]; 10 days after drench, 0.5-5.0 g/plot, controls had significant numbers of all species): did not contain nematodes
plant parasitic nematodes at the end of the experiment ([10]; all rates of application): no plant parasitic nematodes

Source: patent US6852341B2 (priority 2000, dated 2005)
